# Source: PubChem BioAssay AID2060491 (Molecular Pharmacology Branch, DTP, NCI, 2025)
# Tested on: 857933-349-R-J2-PDC complex spheroids, viability
# Assay: Anticancer human tumor 857933-349-R-J2-PDC patient-derived colon adenocarcinoma cell line growth inhibition [GQUAD]
# Conditions: for IC50: curve of first compound; for viability, T/C: stronger effect = lower value
# Outline: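 Tumor cells were grown as complex spheroids with HUVEC endothelial cells and mesenchymal stem cells as stroma. G-quadruplex stabilizers were combined with targeted agents over half-log dilutions from near the clinical Cmax, or from 10 microM.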
# [1] = second compound 0.0316 µM, first compound 0.0316 µM
# [2] = second compound 0.0316 µM, first compound 0.1 µM
# [3] = second compound 0.0316 µM, first compound 0.316 µM
# [4] = second compound 0.0316 µM, first compound 1 µM
# [5] = second compound 0.0316 µM, first compound 3.16 µM
# [6] = second compound 0.0316 µM, first compound 10 µM
# [7] = second compound 0.1 µM, first compound 0.0316 µM
# [8] = second compound 0.1 µM, first compound 0.1 µM
# [9] = second compound 0.1 µM, first compound 0.316 µM
# [10] = second compound 0.1 µM, first compound 1 µM
# [11] = second compound 0.1 µM, first compound 3.16 µM
# [12] = second compound 0.1 µM, first compound 10 µM
# [13] = second compound 0.316 µM, first compound 0.0316 µM
# [14] = second compound 0.316 µM, first compound 0.1 µM
# [15] = second compound 0.316 µM, first compound 0.316 µM
# [16] = second compound 0.316 µM, first compound 1 µM
# [17] = second compound 0.316 µM, first compound 3.16 µM
# [18] = second compound 0.316 µM, first compound 10 µM
# [19] = second compound 1 µM, first compound 0.0316 µM
# [20] = second compound 1 µM, first compound 0.1 µM
# [21] = second compound 1 µM, first compound 0.316 µM
# [22] = second compound 1 µM, first compound 1 µM
# [23] = second compound 1 µM, first compound 3.16 µM
# [24] = second compound 1 µM, first compound 10 µM
# [25] = second compound 3.16 µM, first compound 0.0316 µM
# [26] = second compound 3.16 µM, first compound 0.1 µM
# [27] = second compound 3.16 µM, first compound 0.316 µM
# [28] = second compound 3.16 µM, first compound 1 µM
# [29] = second compound 3.16 µM, first compound 3.16 µM
# [30] = second compound 3.16 µM, first compound 10 µM
# [31] = second compound 10 µM, first compound 0.0316 µM
# [32] = second compound 10 µM, first compound 0.1 µM
# [33] = second compound 10 µM, first compound 0.316 µM
# [34] = second compound 10 µM, first compound 1 µM
# [35] = second compound 10 µM, first compound 3.16 µM
# [36] = second compound 10 µM, first compound 10 µM
# 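Further: spheroids exposed to compounds for one week before readout.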
# 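Wherever viability, T/C is given: percent viability relative to vehicle DMSO wells taken as 100%.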
structure (smiles),measurement,setting,value
C#Cc1c(F)ccc2cc(O)cc(-c3ncc4c(N5CC6CCC(C5)N6)nc(OCC56CCCN5CC(F)C6)nc4c3F)c12 (stereo not given) + Cc1[nH]c2ccc(F)cc2c1-c1nc2c3cccnc3c3ncccc3c2[nH]1,IC50,second compound 0.0316 µM,> 10 µM
same,IC50,second compound 0.1 µM,> 10 µM
same,IC50,second compound 0.316 µM,> 10 µM
same,IC50,second compound 1 µM,> 10 µM
same,IC50,second compound 3.16 µM,> 10 µM
same,IC50,second compound 10 µM,> 10 µM
same,"viability, T/C",[1],109%
same,"viability, T/C",[2],96.3%
same,"viability, T/C",[3],91.9%
same,"viability, T/C",[4],80.7%
same,"viability, T/C",[5],74.3%
same,"viability, T/C",[6],63.9%
same,"viability, T/C",[7],104%
same,"viability, T/C",[8],98.5%
same,"viability, T/C",[9],89.2%
same,"viability, T/C",[10],85.2%
same,"viability, T/C",[11],71.3%
same,"viability, T/C",[12],66.7%
same,"viability, T/C",[13],101%
same,"viability, T/C",[14],90.8%
same,"viability, T/C",[15],86.3%
same,"viability, T/C",[16],78.4%
same,"viability, T/C",[17],81.7%
same,"viability, T/C",[18],70.1%
same,"viability, T/C",[19],98.2%
same,"viability, T/C",[20],87.5%
same,"viability, T/C",[21],93.3%
same,"viability, T/C",[22],78.8%
same,"viability, T/C",[23],86.7%
same,"viability, T/C",[24],75.7%
same,"viability, T/C",[25],94.3%
same,"viability, T/C",[26],83.2%
same,"viability, T/C",[27],81.6%
same,"viability, T/C",[28],73.3%
same,"viability, T/C",[29],80.8%
same,"viability, T/C",[30],74.3%
same,"viability, T/C",[31],90.4%
same,"viability, T/C",[32],93.7%
same,"viability, T/C",[33],87%
same,"viability, T/C",[34],79.9%
same,"viability, T/C",[35],78.8%
same,"viability, T/C",[36],66.8%
CCCS(=O)(=O)Nc1ccc(F)c(C(=O)c2c[nH]c3ncc(-c4ccc(Cl)cc4)cc23)c1F + Cc1[nH]c2ccc(F)cc2c1-c1nc2c3cccnc3c3ncccc3c2[nH]1,IC50,second compound 0.0316 µM,5.43 µM
same,IC50,second compound 0.1 µM,5.23 µM
same,IC50,second compound 0.316 µM,5.23 µM
same,IC50,second compound 1 µM,5.11 µM
same,IC50,second compound 3.16 µM,5.01 µM
same,IC50,second compound 10 µM,4.74 µM
same,"viability, T/C",[1],101%
same,"viability, T/C",[2],98.1%
same,"viability, T/C",[3],94.7%
same,"viability, T/C",[4],115%
same,"viability, T/C",[5],89.8%
same,"viability, T/C",[6],4.88%
same,"viability, T/C",[7],97.8%
same,"viability, T/C",[8],97.7%
same,"viability, T/C",[9],102%
same,"viability, T/C",[10],105%
same,"viability, T/C",[11],85%
same,"viability, T/C",[12],4.75%
same,"viability, T/C",[13],97.8%
same,"viability, T/C",[14],97.5%
same,"viability, T/C",[15],96%
same,"viability, T/C",[16],94.3%
same,"viability, T/C",[17],84.4%
same,"viability, T/C",[18],5.8%
same,"viability, T/C",[19],97.1%
same,"viability, T/C",[20],85.1%
same,"viability, T/C",[21],90.2%
same,"viability, T/C",[22],82.8%
same,"viability, T/C",[23],81.1%
same,"viability, T/C",[24],6.53%
same,"viability, T/C",[25],84.4%
same,"viability, T/C",[26],74.2%
same,"viability, T/C",[27],79.1%
same,"viability, T/C",[28],74.2%
same,"viability, T/C",[29],82.9%
same,"viability, T/C",[30],6.5%
same,"viability, T/C",[31],82.7%
same,"viability, T/C",[32],85.2%
same,"viability, T/C",[33],80.5%
same,"viability, T/C",[34],84.5%
same,"viability, T/C",[35],73.7%
same,"viability, T/C",[36],6.22%
COc1cc(C2c3cc4c(cc3C(OC3OC5COC(C)OC5C(O)C3O)C3COC(=O)C23)OCO4)cc(OC)c1O (stereo not given) + Cc1[nH]c2ccc(F)cc2c1-c1nc2c3cccnc3c3ncccc3c2[nH]1,IC50,second compound 0.0316 µM,0.935 µM
same,IC50,second compound 0.1 µM,0.962 µM
same,IC50,second compound 0.316 µM,1.03 µM
same,IC50,second compound 1 µM,1.41 µM
same,IC50,second compound 3.16 µM,0.964 µM
same,IC50,second compound 10 µM,0.98 µM
same,"viability, T/C",[1],84.8%
same,"viability, T/C",[2],62.7%
same,"viability, T/C",[3],58%
same,"viability, T/C",[4],53.8%
same,"viability, T/C",[5],42.1%
same,"viability, T/C",[6],24.6%
same,"viability, T/C",[7],86.5%
same,"viability, T/C",[8],73.6%
same,"viability, T/C",[9],50.9%
same,"viability, T/C",[10],59.4%
same,"viability, T/C",[11],38.8%
same,"viability, T/C",[12],24.9%
same,"viability, T/C",[13],88.9%
same,"viability, T/C",[14],69.8%
same,"viability, T/C",[15],55.9%
same,"viability, T/C",[16],59%
same,"viability, T/C",[17],38.9%
same,"viability, T/C",[18],25.4%
same,"viability, T/C",[19],81.4%
same,"viability, T/C",[20],71.8%
same,"viability, T/C",[21],50.7%
same,"viability, T/C",[22],63.1%
same,"viability, T/C",[23],44.6%
same,"viability, T/C",[24],23.5%
same,"viability, T/C",[25],94.9%
same,"viability, T/C",[26],65.3%
same,"viability, T/C",[27],47.6%
same,"viability, T/C",[28],56.2%
same,"viability, T/C",[29],45.4%
same,"viability, T/C",[30],24%
same,"viability, T/C",[31],90.7%
same,"viability, T/C",[32],69.5%
same,"viability, T/C",[33],49.8%
same,"viability, T/C",[34],56.5%
same,"viability, T/C",[35],50.7%
same,"viability, T/C",[36],27.7%
COc1cccc2c1C(=O)c1c(O)c3c(c(O)c1C2=O)CC(O)(C(=O)CO)CC3OC1CC(N)C(O)C(C)O1 (stereo not given) + Cc1[nH]c2ccc(F)cc2c1-c1nc2c3cccnc3c3ncccc3c2[nH]1,IC50,second compound 0.0316 µM,0.444 µM
same,IC50,second compound 0.1 µM,0.721 µM
same,IC50,second compound 0.316 µM,0.965 µM
same,IC50,second compound 1 µM,0.839 µM
same,IC50,second compound 3.16 µM,0.572 µM
same,IC50,second compound 10 µM,0.505 µM
same,"viability, T/C",[1],90.5%
same,"viability, T/C",[2],66%
same,"viability, T/C",[3],59.2%
same,"viability, T/C",[4],41.6%
same,"viability, T/C",[5],5.07%
same,"viability, T/C",[6],0.26%
same,"viability, T/C",[7],81.5%
same,"viability, T/C",[8],63.5%
same,"viability, T/C",[9],59.7%
same,"viability, T/C",[10],49.2%
same,"viability, T/C",[11],7.76%
same,"viability, T/C",[12],0.17%
same,"viability, T/C",[13],74.2%
same,"viability, T/C",[14],66.8%
same,"viability, T/C",[15],56.4%
same,"viability, T/C",[16],51%
same,"viability, T/C",[17],5.84%
same,"viability, T/C",[18],0.2%
same,"viability, T/C",[19],79.9%
same,"viability, T/C",[20],62.5%
same,"viability, T/C",[21],61.9%
same,"viability, T/C",[22],48.6%
same,"viability, T/C",[23],5.97%
same,"viability, T/C",[24],0.21%
same,"viability, T/C",[25],79.4%
same,"viability, T/C",[26],65.7%
same,"viability, T/C",[27],59.4%
same,"viability, T/C",[28],43.6%
same,"viability, T/C",[29],6.19%
same,"viability, T/C",[30],0.26%
same,"viability, T/C",[31],93%
same,"viability, T/C",[32],74.5%
same,"viability, T/C",[33],58.5%
same,"viability, T/C",[34],43.7%
same,"viability, T/C",[35],5.74%
same,"viability, T/C",[36],0.29%
O=c1[nH]cc(F)c(=O)[nH]1 + Cc1[nH]c2ccc(F)cc2c1-c1nc2c3cccnc3c3ncccc3c2[nH]1,IC50,second compound 0.0316 µM,1.72 µM
same,IC50,second compound 0.1 µM,1.8 µM
same,IC50,second compound 0.316 µM,2.1 µM
same,IC50,second compound 1 µM,2.15 µM
same,IC50,second compound 3.16 µM,2.06 µM
same,IC50,second compound 10 µM,2.2 µM
same,"viability, T/C",[1],97.1%
same,"viability, T/C",[2],111%
same,"viability, T/C",[3],99%
same,"viability, T/C",[4],65.7%
same,"viability, T/C",[5],33.3%
same,"viability, T/C",[6],22.6%
same,"viability, T/C",[7],104%
same,"viability, T/C",[8],103%
same,"viability, T/C",[9],96.8%
same,"viability, T/C",[10],64.8%
same,"viability, T/C",[11],36%
same,"viability, T/C",[12],22.5%
same,"viability, T/C",[13],100%
same,"viability, T/C",[14],99.3%
same,"viability, T/C",[15],94%
same,"viability, T/C",[16],74.9%
same,"viability, T/C",[17],36.1%
same,"viability, T/C",[18],22.6%
same,"viability, T/C",[19],101%
same,"viability, T/C",[20],98.2%
same,"viability, T/C",[21],96.7%
same,"viability, T/C",[22],75.7%
same,"viability, T/C",[23],37%
same,"viability, T/C",[24],23%
same,"viability, T/C",[25],96.3%
same,"viability, T/C",[26],94.7%
same,"viability, T/C",[27],96.7%
same,"viability, T/C",[28],73.8%
same,"viability, T/C",[29],36.1%
same,"viability, T/C",[30],22.6%
same,"viability, T/C",[31],93.2%
same,"viability, T/C",[32],96.8%
same,"viability, T/C",[33],95.2%
same,"viability, T/C",[34],82%
same,"viability, T/C",[35],35.3%
same,"viability, T/C",[36],24.8%
